Test results: paper PMC10960705 (Cell chemical biology, 2023)

What was measured:
Format in all cases: cell-based
VLDLR = VLDLR (Homo sapiens, UniProt P98155); experiment: TMT-ABPP competition with DBIA probe in lysate
KRAS^G12C = KRAS^G12C (Homo sapiens, UniProt P01116, G12C); experiment: TMT-ABPP competition with DBIA probe in HCC44 lysate, […], […] hr
[1] = molecular target: peptidyl-prolyl cis/trans isomerase PIN1 (Homo sapiens, UniProt Q13526); experiment: TMT-ABPP dose-response competition with DBIA probe in lysate
Sequence of peptidyl-prolyl cis/trans isomerase PIN1 (Q13526 whole entry): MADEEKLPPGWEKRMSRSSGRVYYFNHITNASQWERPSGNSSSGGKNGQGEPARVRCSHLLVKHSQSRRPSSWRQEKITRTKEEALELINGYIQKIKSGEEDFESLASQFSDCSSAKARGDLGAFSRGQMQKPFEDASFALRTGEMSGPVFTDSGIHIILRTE

Structure (SMILES): C=CC(=O)N1CCCC(n2ccnn2)CC1 (stereo not drawn) [AC19, 1-(4-(1H-1,2,3-triazol-1-yl)azepan-1-yl)prop-2-en-1-one]
- TMT-ABPP competition with DBIA probe in lysate (VLDLR): reside in their respective EGF-like domains and were all exclusively and significantly engaged by AC19

Structure (SMILES): C=CC(=O)N1CCN(c2ncnc3c(F)c(-c4c(O)cccc4F)c(Cl)cc23)CC1 [ARS-1620]
- TMT-ABPP competition with DBIA probe in HCC44 lysate, 50 μM, 1 hr (KRAS^G12C): 2.7 competition ratio (CR) at 50 μM

Structure (SMILES): CC(C)(C)CN(C(=O)CCl)C1CCS(=O)(=O)C1 (stereo not drawn) [Sulfopin]
- TMT-ABPP dose-response competition with DBIA probe in lysate [1]: Sulfopin is the most potent among the four whereas CL41 is the least
